# Assay results as given in publication PMC7698842, “Lanostane Triterpenoid Metabolites from a Penares sp. Marine Sponge Protect Neuro-2a Cells against Paraquat Neurotoxicity” (Molecules, 2020).
# How the values were obtained:
# [1] = DPPH radical scavenging assay (cell-free); details: 30 min, MeOH
# Method: The 2,2-diphenyl-1-picryl-hydrazyl-hydrate (DPPH) radical scavenging activity was tested as described previously. The compounds were dissolved in MeOH, and the solutions (120 µL) were dispensed into wells of a 96-well microplate. The DPPH (Sigma-Aldrich, Steinheim, Germany) was dissolved in MeOH at a concentration of 7.5 × 10^−3 M and the solution (30 µL) was added to each well. The concentrations of tested compounds in the mixtures were 10 and 100 µM. Ascorbic acid was used as a positive control. The mixtures were shaken and left for 30 min. The absorbance of the resulting solutions was measured at λ = 520 nm with a MultiscanFC plate reader (Thermo Scientific, Waltham, MA, USA). The concentration scavenging 50% of the DPPH radical (EC50) was calculated for each compound.
# [2] = system: mitochondrial membrane potential in PQ-treated Neuro-2a cells; test: Mitochondrial membrane potential detection (TMRM) in PQ-treated Neuro-2a cells; type: cell-based, mouse
# Method: The cells (1 × 10^4 cells/well of a 96-well plate) were incubated with compound solutions (1 and 10 µM) during 1 h. Then, PQ was added to cell suspension to a resulting concentration of 500 µM for incubation during 1 h. Cells incubated without PQ and compounds and with PQ alone were used as positive and negative controls, respectively. The tetramethylrhodamine methyl (TMRM) (Sigma-Aldrich, St. Louis, MO, USA) solution at 500 nM was added in each well and cells were incubated for 30 min at 37 °C. The intensity of fluorescence was measured with a PHERAstar FS plate reader (BMG Labtech, Ortenberg, Germany) at λex = 540 nm and λem = 590 nm. The data were processed by MARS Data Analysis v. 3.01R2 (BMG Labtech, Ortenberg, Germany). The results were presented as percent of positive control data.
# [3] = Cytotoxicity toward Neuro-2a cells (MTT assay); type: cell-based, mouse; details: mouse, Neuro-2a neuroblastoma cells, 24 h; for activity at 24 h, 10 µM: Neuro-2a cell viability, read-out: Cytotoxicity (MTT Assay) % of Control at 10 μM; for IC50 at 24 h: Neuro-2a cells
# Method: (§1) The cells of mouse neuroblastoma cell line Neuro-2a (ATCC® CCL-131™; American Type Culture Collection, Manassas, VA, USA) were cultured in Dulbecco’s modified Eagle’s medium (DMEM) containing 10% fetal bovine serum (Biolot, St. Petersburg, Russia) and 1% penicillin/streptomycin (Biolot, St. Petersburg, Russia) at 37 °C in a humidified atmosphere with 5% (v/v) CO2. Initially, cells were incubated in cultural flasks until sub-confluent (~80%). For testing, Neuro-2a cells were seeded in 96- or 6-well plates and experiments were started after 24 h.
# (§2) The cells (1 × 10^4 cells/well of a 96-well plate) were incubated with different concentrations of studied compounds during 24 h. After that, cell viability was determined by the MTT (3-(4,5-dimethylthiazol-2-yl)-2,5-diphenyltetrazolium bromide) method according to the manufacturer’s instructions (Sigma-Aldrich, St. Louis, MO, USA). Absorbance of the converted formazan was measured using a Multiskan FC microplate photometer (Thermo Scientific, Waltham, MA, USA) at λ = 570 nm. The results were presented as percent of control data, and concentration of cell viability inhibition on 50% (IC50) was calculated.
# [4] = system: ROS level in PQ-treated Neuro-2a cells; test: ROS level analysis in PQ-treated Neuro-2a cells (H2DCFDA); type: cell-based, mouse; details: for concentrations at which ROS content in PQ-treated cells was reduced: tested at 1 and 10 μM
# Method: The cells (1 × 10^4 cells/well of a 96-well plate) were incubated with compound solutions (1 and 10 µM) during 1 h. Then, PQ was added to cell suspension to a resulting concentration of 500 µM for incubation during 1 h. Cells incubated without PQ and compounds and with PQ alone were used as positive and negative controls, respectively. The 20 µL of 2,7-dichlorodihydrofluorescein diacetate solution (H2DCFDA, Molecular Probes, Eugene, OR, USA) was added to each well (10 µM, final concentration) and the plate was incubated for an additional 10 min at 37 °C. The intensity of dichlorofluorescin fluorescence was measured with a PHERAstar FS plate reader (BMG Labtech, Ortenberg, Germany) at λex = 485 nm and λem = 518 nm. The data were processed by MARS Data Analysis v. 3.01R2 (BMG Labtech, Ortenberg, Germany). The results were presented as percent of positive control data.
# [5] = system: Hsp70 level in Neuro-2a cells; test: Hsp70 level analysis by Western blot in Neuro-2a cells; type: cell-based, mouse; details: for increase of Hsp70 level in PQ-treated cells: compound 10 µM 1 h, then PQ 500 µM 24 h
# Method: The Hsp70 expression was detected by Western blot analysis. Cell suspensions (1.6 × 10^5 cells/well of a 6-well plate) were seeded and treated with studied compounds at a concentration of 10 µM for 1 h. After that, PQ (500 µM) was added and cells were incubated during 24 h. Cells incubated without PQ and compounds and with PQ alone were used as positive and negative controls, respectively. Cells were washed by cold PBS (BioloT, Russia) twice and lysed by radioimmunoprecipitation assay (RIPA) buffer (BioloT, St. Peterburg, Russia). The amount of proteins was measured by the Bradford method and equal samples (25 µg) were prepared using sample buffer. Proteins were separated with sodium dodecyl sulphate (SDS) electrophoresis in 10% polyacrylamide gel. The electrophoretically separated proteins were transferred onto the polyvinylidene difluoride (PVDF) membrane Whatman (Sigma-Aldrich, St. Louis, MO, USA) using a semi-dry transfer apparatus (Helicon, Moscow, Russia). […] The peroxidase reaction was visualized by an enhanced chemiluminescence (ECL) kit according to the instructions of the manufacturer (Sigma-Aldrich, St. Louis, MO, USA) using the VersaDoc Imaging System (Bio-Rad, Hercules, CA, USA).
# [6] = system: PQ-treated Neuro-2a cells; test: Neurite outgrowth estimation in PQ-treated Neuro-2a cells; type: cell-based, mouse
# Method: Neurite outgrowth was studied as described by Li et al.. Neuro-2a cells were seeded in 6-well plates (1.6 × 10^5 cells/well) in DMEM medium containing 10% fetal bovine serum (Biolot, St. Peterburg, Russia) and 1% penicillin/streptomycin (Invitrogen, Carlsbad, CA, USA). The next day, this growth media was changed with serum-free DMEM media containing 1% penicillin/streptomycin, and cells were treated with studied compounds at a concentration of 10 µM for 1 h. After that, PQ (500 µM) was added and cells were incubated during 24 h. Cells incubated without PQ and compounds and with PQ alone were used as positive and negative controls, respectively.
# For each well, approximately 10 images were acquired randomly by scanning the wells from left to right and top to bottom using the AxioImager A1 microscope (CarlZeiss, Oberkochen, Germany). A total of ten random fields (near 350 cells in each) for each experimental group were scored for neurite outgrowth. The number of neurite-bearing cells and lengths of the individual neurites for each cell were measured using the AxioVision 4.7.1 software (CarlZeiss, Oberkochen, Germany). Length was defined as the straight-line distance from the tip of the neurite to the junction between the cell body and neurite base. In the case of branched neurites, the length of the longest branch was measured from the tip of the neurite to the cell body. In each experimental group, the average length of neurites was calculated, as well as the average number of neurites per one cell.
# [7] = system: PQ-treated Neuro-2a cells; test: Propidium iodide straining of PQ-treated Neuro-2a cells (membrane permeability); type: cell-based, mouse; details: 24 h; for decrease of fluorescence of PI-straining cells: compound 10 μM pre-incubation, PQ-treated cells
# Method: The cells (1 × 10^4 cells/well) were seeded in black 96-well plates before testing. After incubation of the cells with compounds and PQ during 24 h, PI solution (10 μg/mL) was added to each well and the plate was incubated in the dark at 37 °C for 10 min. Cells were washed with phosphate buffer saline (PBS) (BioloT, St.Peterburg, Russia) and fluorescence was measured with a Fluoroskan Ascent plate reader (Thermo Labsystems, Helsinki, Finland) at […]. All manipulations with fluorescent probes were carried out in a darkened room. The results were presented as percent of positive control data.
# [8] = system: PQ-treated Neuro-2a cells; test: PQ-treated Neuro-2a cell viability (MTT assay); type: cell-based, mouse; details: 24 h; for effect on PQ-treated cell viability (MTT assay): compound 1 and 10 µM, PQ 500 µM
# Method: as §2
# (§3) The cells (1 × 10^4 cells/well of a 96-well plate) were treated with studied compounds at concentrations of 1 and 10 µM for 1 h and then 500 µM of PQ (Sigma-Aldrich, St. Louis, MO, USA) was added to the neuroblastoma cells. Cells incubated without PQ and compounds and with PQ alone were used as positive and negative controls, respectively. The viability of cells was measured after 24 h using MTT and FDA methods. The results were presented as percent of positive control data.
# [9] = system: Neuro-2a cells; test: Cytotoxicity toward Neuro-2a cells (MTT assay); type: cell-based, mouse; details: Neuro-2a cells, 100 μM, MTT assay
# Method: as §1, §2
# [10] = system: PQ-treated Neuro-2a cells; test: PQ-treated Neuro-2a cell viability (FDA assay); type: cell-based, mouse; details: 24 h
# Method: A stock solution of the fluorescein diacetate (FDA) (Sigma-Aldrich, St. Louis, MO, USA) in DMSO (1 mg/mL) was prepared. The cells (1 × 10^4 cells/well) were seeded in black 96-well plates before testing. After incubation of the cells with compounds and PQ during 24 h, FDA solution (50 μg/mL) was added to each well and the plate was incubated in the dark at 37 °C for 15 min. Cells were washed with phosphate buffer saline (PBS) (BioloT, S.-Peterburg, Russia) and fluorescence was measured with a Fluoroskan Ascent plate reader (Thermo Labsystems, Helsinki, Finland) at λex = 485 nm and λem = 518 nm. All manipulations with fluorescent probes were carried out in a darkened room. Cell viability was expressed as the percent of control.
# as §3
# [11] = compound 10 µM 1 h, then PQ 500 µM 24 h
# [12] = PQ-treated cells (PQ alone 500 µM)
Compound,EC50 [1] [µM],"activity at 24 h, 10 µM [3] [%]",IC50 at 24 h [3] [µM],increase of Hsp70 level in PQ-treated cells [5] [%],"increase in the average number of neurites per cell [6, 11] [%]",decrease of fluorescence of PI-straining cells [7] [%],effect on PQ-treated cell viability (MTT assay) [8],concentrations at which ROS content in PQ-treated cells was reduced ([4]; PQ 500 µM 1 h),further results
"O=C1O[C@H]([C@@H](O)CO)C(O)=C1O [Ascorbic acid, reference compound]",20.5 ± 1.5,–,–,–,–,–,–,–,–
"CC(=O)O[C@H]1CC[C@@]2(C)[C@@H](C[C@@H]3O[C@]34[C@]23CC[C@]2(C)[C@@H]([C@H](C)CCC=C(C)C)CC[C@@]42C(=O)O3)C1(C)C [Compound 1, 3β-acetoxy-7β,8β-epoxy-5α-lanost-24-en-30,9α-olide]",> 100,92.1 ± 7.1,85.7 ± 2.4,62,16,16,–,–,"increase of intensity of TMRM fluorescence (PQ-induced mitochondrial dysfunction diminished) ([2]; compound 10 μM, PQ 500 µM 1 h): 37%; effect on ROS level in PQ-treated cells ([4]; compound 1 and 10 µM, 1 h pre-treatment, PQ 500 µM 1 h): did not affect ROS level; effect on the number of neurite-bearing PQ-treated cells ([6]; compound 10 µM, PQ 500 µM): did not show a statistical effect"
"CC(C)=CCC[C@@H](C)[C@H]1CC[C@]23C(=O)O[C@]4(CC[C@]12C)[C@]31O[C@H]1C[C@H]1C(C)(C)[C@@H](O)CC[C@@]14C [Compound 2, 3β-hydroxy-7β,8β-epoxy-5α-lanost-24-en-30,9α-olide]",> 100,96.9 ± 1.1,> 100,43,12,12,did not show any effect,reduced ROS content only at a concentration of 10 μM,–
"CC(C)=CCC[C@@H](C)[C@H]1CC[C@@]2(C(=O)O)C3=C(CC[C@]12C)[C@@]1(C)CCC(=O)[C@@H](C)[C@@H]1CC3 [Compound 3, 29-nor-penasterone]",> 100,91.1 ± 4.1,> 100,26,17,–,did not show any effect,reduced ROS content only at a concentration of 10 μM,"death of cells [9]: 37.4%; increase of neurites-bearing cell amount compared to PQ-treated control [6, 11]: 113%; effect on PQ-treated cell viability (FDA assay) ([10]; compound 1 and 10 µM, PQ 500 µM): did not show any effect"
"N,N-dimethyl-4,4-bipyridinium dichloride [PQ, reference compound]",–,–,–,–,–,–,–,–,"PQ-treated cell viability, % of control cells (MTT assay) ([8]; PQ alone 500 µM): 45.4%; decrease of TMRM fluorescence ([2]; PQ alone, 1 h exposition): 30%; increase of ROS level compared to control cells ([4]; PQ alone 500 µM, within 1 h): 40%; change of Hsp70 level in comparison with control cells ([5]; PQ alone 500 µM, 24 h): half-decrease; average length of neurites, less than control value by ([6]; PQ alone 500 µM, 24 h): 29%; number of neurites per cell, less than control value by ([6]; PQ alone 500 µM, 24 h): 14%; cells with neurites ([6]; PQ alone 500 µM, 24 h, control 30%): 10%; proportion of neurites with a length of 0–4.99 µm in the total number [6, 12]: 11.1%; proportion of neurites with a length of 10.00–14.99 µm in the total number [6, 12]: 16.6%; increase in the number of PI-straining cells ([7]; PQ alone, versus control): 35%; PQ-treated cell viability, % of control cells (FDA assay) ([10]; PQ alone 500 µM): 62.2%"
